Measured values: ChEMBL document CHEMBL1155500, “The metabolites of mangrove endophytic fungus Zh6-B1 from the South China Sea” (2010)

Assay: Cytotoxicity against human KV/MDR cells at 100 uM after 48 hrs by MTT assay
Format: functional
Conditions: read-out: GI

C[C@@H]1C[C@H](O)CCCc2cc(O)cc(O)c2C(=O)O1
inhibition of growth at 100 µM: 42.4%

C[C@@H]1C[C@@H](O)CCCc2cc(O)cc(O)c2C(=O)O1
inhibition of growth at 100 µM: 41.6%
